Laboratory results taken from PubChem BioAssay AID1259407 (Chemical Carcinogenesis Research Information System (CCRIS), 2018).
Activity calls are given as the source filed them. How the calls were made is not given here.

Tested on: CCRIS mutagenicity, Ames/micronucleus/aberration tests
Test: CCRIS mutagenicity studies

[Cl][Hg][Cl]
mutagenic call (End Point: IN VITRO MICRONUCLEUS, Test System: CHINESE HAMSTER V79 CELLS, Metabolic Activation: NONE): active; positive
mutagenic call (End Point: IN VITRO MICRONUCLEUS, Test System: CHL/IU CELLS, Metabolic Activation: NONE): inactive; negative
mutagenic call (End Point: IN VITRO MICRONUCLEUS, Test System: HUMAN PERIPHERAL LYMPHOCYTES, Metabolic Activation: NONE): active; positive
mutagenic call (End Point: IN VIVO MICRONUCLEUS, Test System: RETICULOCYTES, Species: RAT, Strain/Sex: WISTAR/FEMALE, Route: ORAL (GAVAGE)): active; positive
mutagenic call (Test System: AMES SALMONELLA TYPHIMURIUM, Strain/Indicator: TA98, Metabolic Activation: HAMSTER, LIVER, S-9, AROCLOR 1254 (10%), Method: PREINCUBATION): inactive; negative
mutagenic call (Test System: AMES SALMONELLA TYPHIMURIUM, Strain/Indicator: TA98, Metabolic Activation: NONE, Method: PREINCUBATION): inactive; negative
mutagenic call (Test System: AMES SALMONELLA TYPHIMURIUM, Strain/Indicator: TA98, Metabolic Activation: RAT, LIVER, S-9, AROCLOR 1254 (10%), Method: PREINCUBATION): inactive; negative
mutagenic call (Test System: AMES SALMONELLA TYPHIMURIUM, Strain/Indicator: TA100, Metabolic Activation: HAMSTER, LIVER, S-9, AROCLOR 1254 (10%), Method: PREINCUBATION): inactive; negative
mutagenic call (Test System: AMES SALMONELLA TYPHIMURIUM, Strain/Indicator: TA100, Metabolic Activation: NONE, Method: PREINCUBATION): inactive; negative
mutagenic call (Test System: AMES SALMONELLA TYPHIMURIUM, Strain/Indicator: TA100, Metabolic Activation: RAT, LIVER, S-9, AROCLOR 1254 (10%), Method: PREINCUBATION): inactive; negative
mutagenic call (Test System: AMES SALMONELLA TYPHIMURIUM, Strain/Indicator: TA102, Metabolic Activation: NONE, Method: STANDARD PLATE): inactive; negative
mutagenic call (Test System: AMES SALMONELLA TYPHIMURIUM, Strain/Indicator: TA1535, Metabolic Activation: HAMSTER, LIVER, S-9, AROCLOR 1254 (10%), Method: PREINCUBATION): inactive; negative
mutagenic call (Test System: AMES SALMONELLA TYPHIMURIUM, Strain/Indicator: TA1535, Metabolic Activation: NONE, Method: PREINCUBATION): inactive; negative
mutagenic call (Test System: AMES SALMONELLA TYPHIMURIUM, Strain/Indicator: TA1535, Metabolic Activation: RAT, LIVER, S-9, AROCLOR 1254 (10%), Method: PREINCUBATION): inactive; negative
mutagenic call (Test System: AMES SALMONELLA TYPHIMURIUM, Strain/Indicator: TA1537, Metabolic Activation: HAMSTER, LIVER, S-9, AROCLOR 1254 (10%), Method: PREINCUBATION): inactive; negative
mutagenic call (Test System: AMES SALMONELLA TYPHIMURIUM, Strain/Indicator: TA1537, Metabolic Activation: NONE, Method: PREINCUBATION): inactive; negative
mutagenic call (Test System: AMES SALMONELLA TYPHIMURIUM, Strain/Indicator: TA1537, Metabolic Activation: RAT, LIVER, S-9, AROCLOR 1254 (10%), Method: PREINCUBATION): inactive; negative
mutagenic call (Test System: E. COLI, Strain/Indicator: WP2 UVRA, Metabolic Activation: NONE, Method: SPOT TEST): inactive; negative
mutagenic call (Test System: HUMAN BLOOD LYMPHOCYTES, Strain/Indicator: HUMAN BLOOD LYMPHOCYTES (HPRT)/6-THIOGUANINE, Metabolic Activation: NONE, Method: SUSPENSION/PLATE): active; positive
mutagenic call (Test System: MOUSE LYMPHOMA, Strain/Indicator: L5178Y (TK+/TK-), Metabolic Activation: NONE, Method: SUSPENSION/PLATE): active; positive

Cc1cnc2ccc3c(nc(NO)n3C)c2n1
mutagenic call (Test System: AMES SALMONELLA TYPHIMURIUM, Strain/Indicator: TA98, Metabolic Activation: NONE, Method: STANDARD PLATE): active; positive

C[C@@H]1O[C@@H]1C
mutagenic call (Test System: AMES SALMONELLA TYPHIMURIUM, Strain/Indicator: TA100, Metabolic Activation: NONE, Method: FLASK VAPORIZATION): active; positive
mutagenic call (Test System: AMES SALMONELLA TYPHIMURIUM, Strain/Indicator: TA100, Metabolic Activation: NONE, Method: STANDARD PLATE): active; positive
mutagenic call (Test System: AMES SALMONELLA TYPHIMURIUM, Strain/Indicator: TA100, Metabolic Activation: RAT, LIVER, S-9, AROCLOR 1254, Method: FLASK VAPORIZATION): active; positive
mutagenic call (Test System: AMES SALMONELLA TYPHIMURIUM, Strain/Indicator: TA1535, Metabolic Activation: NONE, Method: FLASK VAPORIZATION): active; positive
mutagenic call (Test System: AMES SALMONELLA TYPHIMURIUM, Strain/Indicator: TA1535, Metabolic Activation: NONE, Method: STANDARD PLATE): active; positive
mutagenic call (Test System: AMES SALMONELLA TYPHIMURIUM, Strain/Indicator: TA1535, Metabolic Activation: RAT, LIVER, S-9, AROCLOR 1254, Method: FLASK VAPORIZATION): active; positive
